Assay results reported in ChEMBL document CHEMBL3885881, “DrugMatrix”.

Species: Rattus norvegicus
Assay: DrugMatrix - Regimen: Daily Repeat
Assay type: toxicity, organism-based, Sprague-Dawley
Set-up: regimen Daily Repeat, gender Male, age 6-8 weeks
Settings: in vivo, po, route oral GAVAGE, vehicle 100 % WATER; for NUCLEATED RED BLOOD CELLS / PLATELET COUNT / ABSOLUTE BASOPHIL / ABSOLUTE EOSINOPHIL / ABSOLUTE LYMPHOCYTE / ABSOLUTE MONOCYTE / ABSOLUTE SEGMENTED NEUTROPHIL / BASOPHIL / EOSINOPHIL / ERYTHROCYTE COUNT / HEMATOCRIT / LEUKOCYTE COUNT / LYMPHOCYTE / MEAN CORPUSCULAR HEMOGLOBIN / MEAN CORPUSCULAR HEMOGLOBIN CONCENTRATION / MEAN CORPUSCULAR VOLUME / MONOCYTE / NEUTROPHIL: tissue Blood; for ALANINE AMINOTRANSFERASE / ALBUMIN / ALKALINE PHOSPHATASE / ASPARTATE AMINOTRANSFERASE / BLOOD UREA NITROGEN / CARBON DIOXIDE / CHLORIDE / CHOLESTEROL / CREATINE PHOSPHOKINASE / CREATININE / LIPASE / POTASSIUM / TOTAL BILIRUBIN / TOTAL PROTEIN: tissue Plasma
[1] = 44 mg/kg, 120 h, dose level Low, time 5 day
[2] = 600 mg/kg, 72 h, dose level M1, time 3 day
[3] = 600 mg/kg, 120 h, dose level M1, time 5 day
[4] = 1200 mg/kg, 72 h, dose level High, time 3 day

`NC(=O)c1ncn([C@@H]2O[C@H](CO)[C@@H](O)[C@H]2O)n1` [RIBAVIRIN] was tested, and the “NUCLEATED RED BLOOD CELLS” value [1] was 0 /100WBC, the “PLATELET COUNT” value [1] was 1248.67 x10E3/uL and the “ALANINE AMINOTRANSFERASE” value [1] was 43 u/L. For the same compound, the ALBUMIN [1] was 4.37 G/DL, the “ALKALINE PHOSPHATASE” value [1] was 347 u/L and the “ASPARTATE AMINOTRANSFERASE” value [1] was 75.33 u/L. For the same compound, the “BLOOD UREA NITROGEN” value [1] was 13.67 mg/dL, the “CARBON DIOXIDE” value [1] was 26 mmol/L and the CHLORIDE [1] was 102 MEQ/L. The CHOLESTEROL [1] was 63 mg/dL, the “CREATINE PHOSPHOKINASE” value [1] was 230.67 u/L and the CREATININE [1] was 0.16 mg/dL. The LIPASE [1] was 8 u/L, the POTASSIUM [1] was 6.69 MEQ/L and the “TOTAL BILIRUBIN” value [1] was 0.2 mg/dL. For the same compound, the “TOTAL PROTEIN” value [1] was 6 G/DL, the “ABSOLUTE BASOPHIL” value [2] was 0 CELLS/uL and the “ABSOLUTE EOSINOPHIL” value [2] was 216 CELLS/uL. The “ABSOLUTE LYMPHOCYTE” value [2] was 9535 CELLS/uL, the “ABSOLUTE MONOCYTE” value [2] was 0 CELLS/uL and the “ABSOLUTE SEGMENTED NEUTROPHIL” value [2] was 1715.67 CELLS/uL. The BASOPHIL [2] was 0%, the EOSINOPHIL [2] was 2% and the “ERYTHROCYTE COUNT” value [2] was 6.28 x10E6/uL. The HEMATOCRIT [2] was 39.7%, the “LEUKOCYTE COUNT” value [2] was 11.47 x10E3/uL and the LYMPHOCYTE [2] was 82.67%. For the same compound, the “MEAN CORPUSCULAR HEMOGLOBIN” value [2] was 23.53 pg, the “MEAN CORPUSCULAR HEMOGLOBIN CONCENTRATION” value [2] was 37.3 G/DL and the “MEAN CORPUSCULAR VOLUME” value [2] was 63.2 fL. The MONOCYTE [2] was 0%, the NEUTROPHIL [2] was 15.33% and the “NUCLEATED RED BLOOD CELLS” value [2] was 0 /100WBC. The “PLATELET COUNT” value [2] was 1269.33 x10E3/uL, the “ALANINE AMINOTRANSFERASE” value [2] was 185 u/L and the ALBUMIN [2] was 3.7 G/DL. For the same compound, the “ALKALINE PHOSPHATASE” value [2] was 293.33 u/L, the “ASPARTATE AMINOTRANSFERASE” value [2] was 480 u/L and the “BLOOD UREA NITROGEN” value [2] was 16.33 mg/dL. The “CARBON DIOXIDE” value [2] was 16 mmol/L, the CHLORIDE [2] was 104.33 MEQ/L and the CHOLESTEROL [2] was 83 mg/dL. For the same compound, the “CREATINE PHOSPHOKINASE” value [2] was 1211.67 u/L, the CREATININE [2] was 0.22 mg/dL and the LIPASE [2] was 35 u/L. For the same compound, the POTASSIUM [2] was 7.1 MEQ/L, the “TOTAL BILIRUBIN” value [2] was 0.2 mg/dL and the “TOTAL PROTEIN” value [2] was 5.33 G/DL. The “ABSOLUTE BASOPHIL” value [3] was 0 CELLS/uL, the “ABSOLUTE EOSINOPHIL” value [3] was 179.33 CELLS/uL and the “ABSOLUTE LYMPHOCYTE” value [3] was 10736 CELLS/uL. The “ABSOLUTE MONOCYTE” value [3] was 0 CELLS/uL, the “ABSOLUTE SEGMENTED NEUTROPHIL” value [3] was 2451.33 CELLS/uL and the BASOPHIL [3] was 0%. For the same compound, the EOSINOPHIL [3] was 1.33%, the “ERYTHROCYTE COUNT” value [3] was 6.48 x10E6/uL and the HEMATOCRIT [3] was 40.57%. For the same compound, the “LEUKOCYTE COUNT” value [3] was 13.37 x10E3/uL, the LYMPHOCYTE [3] was 81.33% and the “MEAN CORPUSCULAR HEMOGLOBIN” value [3] was 23.67 pg. For the same compound, the “MEAN CORPUSCULAR HEMOGLOBIN CONCENTRATION” value [3] was 37.87 G/DL, the “MEAN CORPUSCULAR VOLUME” value [3] was 62.53 fL and the MONOCYTE [3] was 0%. For the same compound, the NEUTROPHIL [3] was 17.33%, the “NUCLEATED RED BLOOD CELLS” value [3] was 0.33 /100WBC and the “PLATELET COUNT” value [3] was 1066.33 x10E3/uL. The “ALANINE AMINOTRANSFERASE” value [3] was 34 u/L, the ALBUMIN [3] was 3.63 G/DL and the “ALKALINE PHOSPHATASE” value [3] was 197 u/L. The “ASPARTATE AMINOTRANSFERASE” value [3] was 117.33 u/L, the “BLOOD UREA NITROGEN” value [3] was 15 mg/dL and the “CARBON DIOXIDE” value [3] was 16 mmol/L. For the same compound, the CHLORIDE [3] was 107.67 MEQ/L, the CHOLESTEROL [3] was 65.67 mg/dL and the “CREATINE PHOSPHOKINASE” value [3] was 1121 u/L. For the same compound, the CREATININE [3] was 0.19 mg/dL, the LIPASE [3] was 14.33 u/L and the POTASSIUM [3] was 7.12 MEQ/L. For the same compound, the “TOTAL BILIRUBIN” value [3] was 0.13 mg/dL, the “TOTAL PROTEIN” value [3] was 5.2 G/DL and the “ABSOLUTE BASOPHIL” value [4] was 0 CELLS/uL. The “ABSOLUTE EOSINOPHIL” value [4] was 0 CELLS/uL, the “ABSOLUTE LYMPHOCYTE” value [4] was 6405 CELLS/uL and the “ABSOLUTE MONOCYTE” value [4] was 112.67 CELLS/uL. The BASOPHIL [4] was 0%, the EOSINOPHIL [4] was 0% and the “ERYTHROCYTE COUNT” value [4] was 6.37 x10E6/uL. The HEMATOCRIT [4] was 39.37%, the “LEUKOCYTE COUNT” value [4] was 8 x10E3/uL and the LYMPHOCYTE [4] was 80%. The “MEAN CORPUSCULAR HEMOGLOBIN” value [4] was 24.77 pg, the “MEAN CORPUSCULAR HEMOGLOBIN CONCENTRATION” value [4] was 40.07 G/DL and the “MEAN CORPUSCULAR VOLUME” value [4] was 61.7 fL. For the same compound, the MONOCYTE [4] was 1.33%, the NEUTROPHIL [4] was 18.67% and the “NUCLEATED RED BLOOD CELLS” value [4] was 0 /100WBC. The “PLATELET COUNT” value [4] was 1071 x10E3/uL, the “ALANINE AMINOTRANSFERASE” value [4] was 55.67 u/L and the ALBUMIN [4] was 3.17 G/DL. The “ALKALINE PHOSPHATASE” value [4] was 195.67 u/L, the “ASPARTATE AMINOTRANSFERASE” value [4] was 225.67 u/L and the “BLOOD UREA NITROGEN” value [4] was 13.33 mg/dL. For the same compound, the “CARBON DIOXIDE” value [4] was 20 mmol/L, the CHLORIDE [4] was 113.33 MEQ/L and the CHOLESTEROL [4] was 88 mg/dL. For the same compound, the “CREATINE PHOSPHOKINASE” value [4] was 1322.67 u/L, the CREATININE [4] was 0.12 mg/dL and the LIPASE [4] was 7.67 u/L. For the same compound, the POTASSIUM [4] was 7 MEQ/L, the “TOTAL BILIRUBIN” value [4] was 0.2 mg/dL and the “TOTAL PROTEIN” value [4] was 4.47 G/DL.
